Assay: mn = molality of the nth substance listed, in mol/kg
Conditions: 101.3 kPa, Liquid; for viscosity: Capillary tube (Ostwald / Ubbelohde) method; for mass density: Pycnometric method

O=C(O)c1cccnc1 [3-carboxylpyridine] + O
Conditions	mass density [kg/m3]	viscosity [mPa·s]
275.15 K, m1 = 0.0098	1000.41	1.675
275.15 K, m1 = 0.0199	1000.84	1.685
275.15 K, m1 = 0.023	1000.96	1.687
275.15 K, m1 = 0.0249	1001.1	1.687
275.15 K, m1 = 0.0299	1001.29	1.691
275.15 K, m1 = 0.0349	1001.51	1.686
275.15 K, m1 = 0.0402	1001.76	1.691
275.15 K, m1 = 0.0429	1001.91	1.693
275.15 K, m1 = 0.0453	1002.02	1.694
275.15 K, m1 = 0.0497	1002.2	1.69
275.15 K, m1 = 0.055	1002.46	1.7
275.15 K, m1 = 0.06	1002.7	1.702
275.15 K, m1 = 0.0646	1002.87	1.704
275.15 K, m1 = 0.0701	1003.17	1.706
275.15 K, m1 = 0.0801	1003.54	1.715
277.15 K, m1 = 0.0094	1000.39	1.572
277.15 K, m1 = 0.0201	1000.87	1.574
277.15 K, m1 = 0.0231	1000.98	1.574
277.15 K, m1 = 0.025	1001.1	1.576
277.15 K, m1 = 0.0296	1001.29	1.577
277.15 K, m1 = 0.0399	1001.69	1.58
277.15 K, m1 = 0.043	1001.86	1.582
277.15 K, m1 = 0.0451	1001.97	1.583
277.15 K, m1 = 0.0499	1002.23	1.586
277.15 K, m1 = 0.055	1002.34	1.586
277.15 K, m1 = 0.06	1002.64	1.587
277.15 K, m1 = 0.0631	1002.69	1.591
277.15 K, m1 = 0.065	1002.84	1.591
277.15 K, m1 = 0.0705	1003.13	1.592
279.15 K, m1 = 0.0103	1000.39	1.474
279.15 K, m1 = 0.0198	1000.79	1.479
279.15 K, m1 = 0.0229	1000.95	1.485
279.15 K, m1 = 0.03	1001.23	1.489
279.15 K, m1 = 0.0351	1001.46	1.49
279.15 K, m1 = 0.04	1001.74	1.495
279.15 K, m1 = 0.0431	1001.79	1.494
279.15 K, m1 = 0.0454	1001.94	1.496
279.15 K, m1 = 0.0501	1002.16	1.499
279.15 K, m1 = 0.0551	1002.39	1.503
279.15 K, m1 = 0.06	1002.54	1.5
279.15 K, m1 = 0.0631	1002.68	1.502
279.15 K, m1 = 0.065	1002.79	1.503
279.15 K, m1 = 0.0701	1003.04	1.509

NC(=O)c1cccnc1 [3-pyridinecarboxamide] + O
Conditions	mass density [kg/m3]	viscosity [mPa·s]
275.15 K, m1 = 0.0101	1000.22	1.683
275.15 K, m1 = 0.0201	1000.53	1.687
275.15 K, m1 = 0.03	1000.83	1.691
275.15 K, m1 = 0.035	1001.02	1.697
275.15 K, m1 = 0.0401	1001.11	1.703
275.15 K, m1 = 0.0452	1001.26	1.707
275.15 K, m1 = 0.0502	1001.51	1.71
275.15 K, m1 = 0.0598	1001.74	1.711
275.15 K, m1 = 0.0651	1001.85	1.714
275.15 K, m1 = 0.07	1002.13	1.718
275.15 K, m1 = 0.0749	1002.21	1.724
275.15 K, m1 = 0.08	1002.41	1.721
275.15 K, m1 = 0.0852	1002.57	1.724
275.15 K, m1 = 0.1004	1002.93	1.73
277.15 K, m1 = 0.01	1000.25	1.578
277.15 K, m1 = 0.0202	1000.54	1.583
277.15 K, m1 = 0.03	1000.97	1.588
277.15 K, m1 = 0.0348	1000.98	1.59
277.15 K, m1 = 0.045	1001.27	1.595
277.15 K, m1 = 0.05	1001.42	1.598
277.15 K, m1 = 0.0601	1001.66	1.603
277.15 K, m1 = 0.0652	1001.86	1.605
277.15 K, m1 = 0.0691	1002	1.607
277.15 K, m1 = 0.075	1002.19	1.61
277.15 K, m1 = 0.0801	1002.29	1.612
277.15 K, m1 = 0.0849	1002.44	1.615
279.15 K, m1 = 0.02	1000.51	1.481
279.15 K, m1 = 0.0302	1000.82	1.482
279.15 K, m1 = 0.0347	1000.97	1.485
279.15 K, m1 = 0.0348	1000.92	1.485
279.15 K, m1 = 0.04	1001.13	1.487
279.15 K, m1 = 0.0451	1001.28	1.488
279.15 K, m1 = 0.05	1001.45	1.493
279.15 K, m1 = 0.0598	1001.7	1.495
279.15 K, m1 = 0.0699	1001.95	1.5
279.15 K, m1 = 0.0749	1002.04	1.504
279.15 K, m1 = 0.0799	1002.19	1.507
279.15 K, m1 = 0.0849	1002.36	1.51
279.15 K, m1 = 0.0897	1002.44	1.513
279.15 K, m1 = 0.1004	1002.78	1.52

— the NIST ThermoML archive (doi:10.1016/j.jct.2014.02.024)
